# Laboratory results from ChEMBL document CHEMBL5329202, “New aryl-/heteroarylpiperazine derivatives of 1,7-dimethyl-8,9-diphenyl-4-azatricyclo[5.2.1.02,6]dec-8-ene-3,5,10-trione: Synthesis and preliminary studies of biological activities” (Bioorg Med Chem, 2023).
# The source made the active and inactive calls. No cut-off for these calls is given here.
# How the values were obtained:
# SW-620 = experiment: Cytotoxicity against human SW620 cells assessed as cell growth inhibition measured after 72 hrs by MTT assay; type: functional, cell-based; conditions: SW-620, 72 h
# [1] = Selectivity index, ratio of IC50 for cytotoxicity against human HMEC-1 cells to IC50 for cytotoxicity against human MDA-MB-231 cells; type: toxicity, cell-based; conditions: HMEC-1 cells and MDA-MB-231 cells, read-out: Ratio IC50
# HCT-116 [2] = experiment: Cytotoxicity against human HCT-116 cells assessed as cell growth inhibition measured after 72 hrs by MTT assay; type: functional, cell-based; conditions: HCT-116, 72 h
# HMEC-1 [3] = experiment: Induction of apoptosis in human HMEC-1 cells assessed as early apoptotic cells at IC50 incubated for 72 hrs by Annexin V-FITC/PI staining based flow cytometric analysis (reference value: 2.4 %); type: functional
# [4] = Selectivity index, ratio of IC50 for cytotoxicity against human HMEC-1 cells to IC50 for cytotoxicity against human HCT-116 cells; type: toxicity, cell-based; conditions: HMEC-1 cells and HCT-116 cells, read-out: Ratio IC50
# HMEC-1 [5] = experiment: Induction of apoptosis in human HMEC-1 cells assessed as late apoptotic cells at IC50 incubated for 72 hrs by Annexin V-FITC/PI staining based flow cytometric analysis (reference value: 4.7 %); type: functional
# K562 [6] = experiment: Cytotoxicity against human K562 cells assessed as cell growth inhibition measured after 72 hrs by MTT assay; type: functional, cell-based; conditions: K562, 72 h
# K562 [7] = experiment: Induction of apoptosis in human K562 cells assessed as necrotic cells at IC50 incubated for 72 hrs by Annexin V-FITC/PI staining based flow cytometric analysis (reference value: 7.1 %); type: functional
# [8] = Selectivity index, ratio of IC50 for cytotoxicity against human HMEC-1 cells to IC50 for cytotoxicity against human PC-3 cells; type: toxicity, cell-based; conditions: HMEC-1 cells and PC-3 cells, read-out: Ratio IC50
# HCT-116 [9] = experiment: Induction of apoptosis in human HCT-116 cells assessed as early apoptotic cells at IC50 incubated for 72 hrs by Annexin V-FITC/PI staining based flow cytometric analysis (reference value: 7.8 %); type: functional
# [10] = Selectivity index, ratio of IC50 for cytotoxicity against human HMEC-1 cells to IC50 for cytotoxicity against human K562 cells; type: toxicity, cell-based; conditions: HMEC-1 cells and K562 cells, read-out: Ratio IC50
# Rattus norvegicus = organism: Rattus norvegicus; experiment: Displacement of [3H]-QNB from Sprague-Dawley rat Muscarinic acetylcholine receptor assessed as inhibition constant measured after 45 mins by competitive binding assay
# MDA-MB-231 = experiment: Cytotoxicity against human MDA-MB-231 cells assessed as cell growth inhibition measured after 72 hrs by MTT assay; type: functional, cell-based; conditions: MDA-MB-231, 72 h
# [11] = molecular target: T1, 5-hydroxytryptamine receptor 1A (Rattus norvegicus, UniProt P19327); experiment: Agonist activity at Sprague-Dawley rat hippocampal membrane 5-HT1A receptor assessed as stimulation of [35S]GTPgammaS binding measured after 90 mins by scintillation counter analysis; type: functional, cell membranes, Hippocampus
# T1 sequence (P19327 whole entry): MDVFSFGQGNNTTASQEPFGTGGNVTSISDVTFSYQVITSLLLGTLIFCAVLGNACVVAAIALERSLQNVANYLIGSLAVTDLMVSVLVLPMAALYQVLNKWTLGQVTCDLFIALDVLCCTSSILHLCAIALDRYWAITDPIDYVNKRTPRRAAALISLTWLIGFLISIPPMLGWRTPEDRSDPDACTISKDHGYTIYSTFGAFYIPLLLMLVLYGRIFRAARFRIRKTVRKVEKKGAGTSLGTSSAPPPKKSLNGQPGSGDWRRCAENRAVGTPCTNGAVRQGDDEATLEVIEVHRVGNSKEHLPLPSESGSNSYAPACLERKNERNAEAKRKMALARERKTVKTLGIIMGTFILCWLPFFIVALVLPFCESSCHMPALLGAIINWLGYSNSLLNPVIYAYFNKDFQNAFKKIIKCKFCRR
# HCT-116 [12] = experiment: Antiproliferative activity against human HCT-116 cells assessed as reduction in cell number at IC50 measured after 72 hrs by trypan blue dye based assay relative to control; type: functional; design: scale not given: the % may be the effect or the level left
# SW480 = experiment: Cytotoxicity against human SW480 cells assessed as cell growth inhibition measured after 72 hrs by MTT assay; type: functional, cell-based; conditions: SW480, 72 h
# HMEC-1 [13] = experiment: Antiproliferative activity against human HMEC-1 cells assessed as reduction in cell viability at IC50 measured after 72 hrs by trypan blue dye based assay relative to control; type: toxicity; conditions: hmec-1, 72 h
# [14] = Selectivity index, ratio of IC50 for cytotoxicity against human HMEC-1 cells to IC50 for cytotoxicity against human SW480 cells
# [15] = Selectivity index, ratio of IC50 for cytotoxicity against human HMEC-1 cells to IC50 for cytotoxicity against human SW620 cells
# K562 [16] = experiment: Antiproliferative activity against human K562 cells assessed as reduction in cell number at IC50 measured after 72 hrs by trypan blue dye based assay relative to control; type: functional; design: scale not given: the % may be the effect or the level left
# D(2) dopamine receptor = D(2) dopamine receptor (Rattus norvegicus, UniProt P61169); experiment: Antagonist activity at Sprague-Dawley rat striatum membrane D2 receptor assessed as inhibition of dopamine stimulated [35S]GTPgammaS binding measured after 90 mins by scintillation counter analysis; type: functional, cell membranes
# D(2) dopamine receptor, sequence (P61169 whole entry): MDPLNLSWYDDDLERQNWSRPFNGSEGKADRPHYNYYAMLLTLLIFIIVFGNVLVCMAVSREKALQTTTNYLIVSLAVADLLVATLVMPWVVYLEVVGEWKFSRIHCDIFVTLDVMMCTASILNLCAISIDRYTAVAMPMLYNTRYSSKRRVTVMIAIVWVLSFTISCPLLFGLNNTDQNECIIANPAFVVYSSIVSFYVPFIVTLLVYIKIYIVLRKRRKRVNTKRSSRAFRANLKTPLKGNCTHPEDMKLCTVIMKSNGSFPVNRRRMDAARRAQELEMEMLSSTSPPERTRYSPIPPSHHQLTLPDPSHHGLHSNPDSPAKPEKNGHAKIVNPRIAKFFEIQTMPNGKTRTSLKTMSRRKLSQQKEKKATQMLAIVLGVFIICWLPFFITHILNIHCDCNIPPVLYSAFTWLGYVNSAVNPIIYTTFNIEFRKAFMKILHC
# A549 = experiment: Cytotoxicity against human A549 cells assessed as cell growth inhibition measured after 72 hrs by MTT assay; type: functional, cell-based; conditions: A549, 72 h
# K562 [17] = experiment: Induction of apoptosis in human K562 cells assessed as late apoptotic cells at IC50 incubated for 72 hrs by Annexin V-FITC/PI staining based flow cytometric analysis (reference value: […]); type: functional
# Histamine H1 receptor = Histamine H1 receptor (Rattus norvegicus, UniProt P31390); experiment: Displacement of [3H]pyrilamine from Sprague-Dawley rat H1 receptor assessed as inhibition constant measured after 30 mins by competitive binding assay
# Histamine H1 receptor, sequence (P31390 whole entry): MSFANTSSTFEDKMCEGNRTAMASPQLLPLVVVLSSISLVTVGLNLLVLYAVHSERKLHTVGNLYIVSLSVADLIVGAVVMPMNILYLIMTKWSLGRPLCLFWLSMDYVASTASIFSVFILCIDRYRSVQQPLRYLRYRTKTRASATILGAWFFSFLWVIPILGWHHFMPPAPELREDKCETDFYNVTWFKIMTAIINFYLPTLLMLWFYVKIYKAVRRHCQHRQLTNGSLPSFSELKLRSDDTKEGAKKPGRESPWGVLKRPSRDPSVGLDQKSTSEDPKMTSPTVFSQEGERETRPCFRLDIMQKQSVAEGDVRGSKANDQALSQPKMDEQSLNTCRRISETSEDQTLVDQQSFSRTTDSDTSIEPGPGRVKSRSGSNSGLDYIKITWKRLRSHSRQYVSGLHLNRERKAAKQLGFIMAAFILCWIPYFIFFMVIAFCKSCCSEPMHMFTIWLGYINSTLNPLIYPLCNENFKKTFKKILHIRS
# [18] = Cytotoxicity against human HMEC-1 cells assessed as cell growth inhibition measured after 72 hrs by MTT assay; type: toxicity, cell-based
# HCT-116 [19] = experiment: Induction of apoptosis in human HCT-116 cells assessed as necrotic cells at IC50 incubated for 72 hrs by Annexin V-FITC/PI staining based flow cytometric analysis (reference value: 0.1 %); type: functional
# HMEC-1 [20] = experiment: Induction of apoptosis in human HMEC-1 cells assessed as necrotic cells at IC50 incubated for 72 hrs by Annexin V-FITC/PI staining based flow cytometric analysis (reference value: 2.4 %); type: functional
# HCT-116 [21] = experiment: Induction of apoptosis in human HCT-116 cells assessed as late apoptotic cells at IC50 incubated for 72 hrs by Annexin V-FITC/PI staining based flow cytometric analysis (reference value: 1.6 %); type: functional
# HepG2 = experiment: Cytotoxicity against human HepG2 cells assessed as cell growth inhibition measured after 72 hrs by MTT assay; type: functional, cell-based; conditions: HepG2, 72 h
# K562 [22] = experiment: Induction of apoptosis in human K562 cells assessed as increase in caspase-3/7 activity at IC50 incubated for 24 hrs by Glo assay relative to control; type: functional
# PC-3 = experiment: Cytotoxicity against human PC-3 cells assessed as cell growth inhibition measured after 72 hrs by MTT assay; type: functional, cell-based; conditions: PC-3, 72 h
# HCT-116 [23] = experiment: Antiproliferative activity against human HCT-116 cells assessed as reduction in cell viability at IC50 measured after 72 hrs by trypan blue dye based assay relative to control; type: functional
Activity (Rattus norvegicus),EC50 [11] [µM],SMILES,IC50 (SW-620) [µM],selectivity ratio [1],IC50 (HCT-116 [2]) [µM],Activity (HMEC-1 [3]) [%],selectivity ratio [4],Activity (HMEC-1 [5]) [%],IC50 (K562 [6]) [µM],Activity (K562 [7]) [%],selectivity ratio [8],Activity (HCT-116 [9]) [%],selectivity ratio [10],IC50 (MDA-MB-231) [µM],Activity (HCT-116 [12]) [%],IC50 (SW480) [µM],Activity (HMEC-1 [13]),Ratio IC50 [14],Ratio IC50 [15],Activity (K562 [16]) [%],also measured
inactive,0.006,COc1ccccc1N1CCN(CCCCN2C(=O)C3C(C2=O)C2(C)C(=O)C3(C)C(c3ccccc3)=C2c2ccccc2)CC1 (stereo unspecified),4.8,1.03,8.89,2.2,3.4,1.8,6.76,20.4,2.07,18.4,4.47,29.3,44,7.41,Non-Toxic,4.08,6.3,88,IC50 (D(2) dopamine receptor): 11.6 µM; IC50 (A549): 16.2 µM; Activity (K562 [17]): 51.3%; Ki (Histamine H1 receptor): 0.3 µM; IC50 at 72 h [18]: 30.2 µM; Activity (HCT-116 [19]): 0.1%; Activity (HMEC-1 [20]): 1.7%; Activity (HCT-116 [21]): 2.3%; IC50 (HepG2): 15.7 µM; Activity (K562 [22]): 22%; IC50 (PC-3): 14.6 µM; Activity (HCT-116 [23]): 34%
inactive,1.5,CC12C(=O)C(C)(C(c3ccccc3)=C1c1ccccc1)C1C(=O)N(CCCCN3CCN(c4ncccn4)CC3)C(=O)C12 (stereo unspecified),13.5,1.64,4.63,4.6,6.6,2.4,8.08,7,1.49,58.2,3.78,18.7,49,15.8,Non-Toxic,1.93,2.26,64,IC50 (D(2) dopamine receptor): 22.6 µM; IC50 (A549): 18.1 µM; Activity (K562 [17]): 11.7%; Ki (Histamine H1 receptor): 0.006 µM; IC50 at 72 h [18]: 30.5 µM; Activity (HCT-116 [19]): 0.3%; Activity (HMEC-1 [20]): 1.3%; Activity (HCT-116 [21]): 4.1%; IC50 (HepG2): 16.7 µM; Activity (K562 [22]): 22%; IC50 (PC-3): 20.4 µM; Activity (HCT-116 [23]): 36%
inactive,1.7,CC12C(=O)C(C)(C(c3ccccc3)=C1c1ccccc1)C1C(=O)N(CCCCN3CCN(c4ccccc4F)CC3)C(=O)C12 (stereo unspecified),22.4,0.31,4.48,1.9,3.95,7.3,5.65,10.6,1.92,23,3.13,56.5,35,7.75,Non-Toxic,2.28,0.79,82,IC50 (D(2) dopamine receptor): 18.3 µM; IC50 (A549): 30.7 µM; Activity (K562 [17]): 27.3%; Ki (Histamine H1 receptor): 0.007 µM; IC50 at 72 h [18]: 17.7 µM; Activity (HCT-116 [19]): 0.2%; Activity (HMEC-1 [20]): 5%; Activity (HCT-116 [21]): 1.9%; IC50 (HepG2): 26.8 µM; Activity (K562 [22]): 74%; IC50 (PC-3): 9.19 µM; Activity (HCT-116 [23]): 35%
